Laboratory results from US20220281848A1, “PYRAZOLE-SUBSTITUTED PYRROLIDINONES AS HERBICIDES” (FMC Corporation, priority 2019, published 2022).

Columns and labels:
Format in all cases: in vivo
Details in all cases: 19 to 21 days
soybean (Glycine max) [1] = test: Test C preemergence, soybean
Source text: (§1) Seeds of plant species selected from corn (Zea mays), soybean (Glycine max), velvetleaf (Abutilon theophrasti), palmer pigweed (Amaranthus palmeri), waterhemp (common waterhemp, Amaranthus rudis), surinam grass (Brachiaria decumbens), large (Lg) crabgrass (Digitaria sanguinalis), fall panicum (Panicum dichotomiflorum), giant foxtail (Setaria faberi), ragweed (common ragweed, Ambrosia elatior), barnyardgrass (Echinochloa crus-galli), E. Black Nightshade (Solanum ptycanthum), and horseweed (Conyza canadensis), were planted into a silt loam soil and treated preemergence with test chemicals formulated in a non-phytotoxic solvent mixture which included a surfactant.
(§2) Treated plants and controls were maintained in a greenhouse for 19 to 21 days, after which time all species were compared to controls and visually evaluated. Plant response ratings, summarized in Table C, are based on a scale of 0 to 100 where 0 is no effect and 100 is complete control.

[2] = system: palmer pigweed (Amaranthus palmeri); test: Test C preemergence, palmer pigweed
Source text: as §1, §2

[3] = system: palmer pigweed (Amaranthus palmeri); test: Test B preemergence, palmer pigweed
Source text: (§3) Seeds of plant species selected from blackgrass (Alopecurus myosuroides), Italian ryegrass (Lolium multiflorum), wheat, winter (winter wheat, Triticum aestivum), corn (Zea mays), large (Lg) crabgrass (Digitaria sanguinalis), giant foxtail (Setaria faberi), johnsongrass (Sorghum halepense), ragweed (common ragweed, Ambrosia elatior), soybean (Glycine max), barnyardgrass (Echinochloa crus-galli), waterhemp (common waterhemp, Amaranthus rudis), palmer pigweed (Amaranthus palmeri), and surinam grass (Brachiaria decumbens), were planted into a silt loam soil and treated preemergence with test chemicals formulated in a non-phytotoxic solvent mixture which included a surfactant.
(§4) Treated plants and controls were maintained in a greenhouse for 19 to 21 days, after which time all species were compared to controls and visually evaluated. Plant response ratings, summarized in Table B, are based on a scale of 0 to 100 where 0 is no effect and 100 is complete control.

[4] = system: johnsongrass (Sorghum halepense); test: Test B preemergence, johnsongrass
Source text: as §3, §4

[5] = system: large (Lg) crabgrass (Digitaria sanguinalis); test: Test B preemergence, large crabgrass
Source text: as §3, §4

[6] = system: wheat, winter (winter wheat, Triticum aestivum); test: Test B preemergence, wheat, winter
Source text: as §3, §4

[7] = system: fall panicum (Panicum dichotomiflorum); test: Test C preemergence, fall panicum
Source text: as §1, §2

soybean (Glycine max) [8] = test: Test B preemergence, soybean
Source text: as §3, §4

[9] = system: giant foxtail (Setaria faberi); test: Test B preemergence, giant foxtail
Source text: as §3, §4

[10] = system: E. Black Nightshade (Solanum ptycanthum); test: Test C preemergence, E. Black Nightshade
Source text: as §1, §2

[11] = system: ragweed (common ragweed, Ambrosia elatior); test: Test B preemergence, ragweed
Source text: as §3, §4

[12] = system: surinam grass (Brachiaria decumbens); test: Test B preemergence, surinam grass
Source text: as §3, §4

[13] = system: waterhemp (common waterhemp, Amaranthus rudis); test: Test B preemergence, waterhemp
Source text: as §3, §4

[14] = system: horseweed (Conyza canadensis); test: Test C preemergence, horseweed
Source text: as §1, §2

[15] = system: barnyardgrass (Echinochloa crus-galli); test: Test C preemergence, barnyardgrass
Source text: as §1, §2

[16] = system: blackgrass (Alopecurus myosuroides); test: Test B preemergence, blackgrass
Source text: as §3, §4

[17] = system: Italian ryegrass (Lolium multiflorum); test: Test B preemergence, Italian ryegrass
Source text: as §3, §4

corn (Zea mays) = test: Test B preemergence, corn
Source text: as §3, §4

[18] = system: barnyardgrass (Echinochloa crus-galli); test: Test B preemergence, barnyardgrass
Source text: as §3, §4

CN1C[C@H](c2cc(C(F)(F)F)n(C)n2)[C@@H](C(=O)Nc2cccc(F)c2F)C1=O [Compound 13, (3S,4R)—N-(2,3-difluorophenyl)-1-methyl-4-[1-methyl-5-(trifluoromethyl)-1H-pyrazol-3-yl]-2-oxo-3-pyrrolidinecarboxamide]
68: Plant response rating (0 no effect, 100 complete control) Barnyardgrass ([15]; 31 g ai/ha Preemergence)
98: Plant response rating (0 no effect, 100 complete control) Foxtail, Giant ([9]; 62 g ai/ha Preemergence) | Plant response rating (0 no effect, 100 complete control) Foxtail, Giant ([9]; 125 g ai/ha Preemergence)
65: Plant response rating (0 no effect, 100 complete control) Surinam Grass ([12]; 16 g ai/ha Preemergence) | Plant response rating (0 no effect, 100 complete control) Horseweed ([14]; 125 g ai/ha Preemergence) | Plant response rating (0 no effect, 100 complete control) Ryegrass, Italian ([17]; 62 g ai/ha Preemergence)
78: Plant response rating (0 no effect, 100 complete control) Surinam Grass ([12]; 31 g ai/ha Preemergence)
92: Plant response rating (0 no effect, 100 complete control) Ryegrass, Italian ([17]; 125 g ai/ha Preemergence)
28: Plant response rating (0 no effect, 100 complete control) Pigweed, Palmer ([2]; 125 g ai/ha Preemergence) | Plant response rating (0 no effect, 100 complete control) Barnyardgrass ([15]; 8 g ai/ha Preemergence)
0: Plant response rating (0 no effect, 100 complete control) Soybean (soybean (Glycine max) [1]; 4 g ai/ha Preemergence) | Plant response rating (0 no effect, 100 complete control) Soybean (soybean (Glycine max) [1]; 8 g ai/ha Preemergence) | Plant response rating (0 no effect, 100 complete control) Soybean (soybean (Glycine max) [1]; 16 g ai/ha Preemergence) | Plant response rating (0 no effect, 100 complete control) Soybean (soybean (Glycine max) [1]; 31 g ai/ha Preemergence) | Plant response rating (0 no effect, 100 complete control) Soybean (soybean (Glycine max) [1]; 62 g ai/ha Preemergence) | Plant response rating (0 no effect, 100 complete control) Soybean (soybean (Glycine max) [1]; 125 g ai/ha Preemergence) | Plant response rating (0 no effect, 100 complete control) Pigweed, Palmer ([2]; 4 g ai/ha Preemergence) | Plant response rating (0 no effect, 100 complete control) Pigweed, Palmer ([2]; 8 g ai/ha Preemergence) | Plant response rating (0 no effect, 100 complete control) Pigweed, Palmer ([2]; 16 g ai/ha Preemergence) | Plant response rating (0 no effect, 100 complete control) Pigweed, Palmer ([2]; 31 g ai/ha Preemergence) | Plant response rating (0 no effect, 100 complete control) Pigweed, Palmer ([2]; 62 g ai/ha Preemergence) | Plant response rating (0 no effect, 100 complete control) Pigweed, Palmer ([3]; 16 g ai/ha Preemergence) | Plant response rating (0 no effect, 100 complete control) Pigweed, Palmer ([3]; 31 g ai/ha Preemergence) | Plant response rating (0 no effect, 100 complete control) Pigweed, Palmer ([3]; 62 g ai/ha Preemergence) | Plant response rating (0 no effect, 100 complete control) Pigweed, Palmer ([3]; 125 g ai/ha Preemergence) | Plant response rating (0 no effect, 100 complete control) Johnsongrass ([4]; 16 g ai/ha Preemergence) | Plant response rating (0 no effect, 100 complete control) Panicum ([7]; 4 g ai/ha Preemergence) | Plant response rating (0 no effect, 100 complete control) Panicum ([7]; 8 g ai/ha Preemergence) | Plant response rating (0 no effect, 100 complete control) Panicum ([7]; 16 g ai/ha Preemergence) | Plant response rating (0 no effect, 100 complete control) Panicum ([7]; 31 g ai/ha Preemergence) | Plant response rating (0 no effect, 100 complete control) Soybean (soybean (Glycine max) [8]; 16 g ai/ha Preemergence) | Plant response rating (0 no effect, 100 complete control) Soybean (soybean (Glycine max) [8]; 31 g ai/ha Preemergence) | Plant response rating (0 no effect, 100 complete control) Soybean (soybean (Glycine max) [8]; 62 g ai/ha Preemergence) | Plant response rating (0 no effect, 100 complete control) Nightshade ([10]; 4 g ai/ha Preemergence) | Plant response rating (0 no effect, 100 complete control) Nightshade ([10]; 8 g ai/ha Preemergence) | Plant response rating (0 no effect, 100 complete control) Nightshade ([10]; 16 g ai/ha Preemergence) | Plant response rating (0 no effect, 100 complete control) Nightshade ([10]; 31 g ai/ha Preemergence) | Plant response rating (0 no effect, 100 complete control) Nightshade ([10]; 62 g ai/ha Preemergence) | Plant response rating (0 no effect, 100 complete control) Ragweed ([11]; 16 g ai/ha Preemergence) | Plant response rating (0 no effect, 100 complete control) Ragweed ([11]; 31 g ai/ha Preemergence) | Plant response rating (0 no effect, 100 complete control) Ragweed ([11]; 62 g ai/ha Preemergence) | Plant response rating (0 no effect, 100 complete control) Ragweed ([11]; 125 g ai/ha Preemergence) | Plant response rating (0 no effect, 100 complete control) Waterhemp ([13]; 16 g ai/ha Preemergence) | Plant response rating (0 no effect, 100 complete control) Waterhemp ([13]; 31 g ai/ha Preemergence) | Plant response rating (0 no effect, 100 complete control) Waterhemp ([13]; 62 g ai/ha Preemergence) | Plant response rating (0 no effect, 100 complete control) Horseweed ([14]; 4 g ai/ha Preemergence) | Plant response rating (0 no effect, 100 complete control) Horseweed ([14]; 8 g ai/ha Preemergence) | Plant response rating (0 no effect, 100 complete control) Horseweed ([14]; 16 g ai/ha Preemergence) | Plant response rating (0 no effect, 100 complete control) Barnyardgrass ([15]; 4 g ai/ha Preemergence) | Plant response rating (0 no effect, 100 complete control) Blackgrass ([16]; 16 g ai/ha Preemergence) | Plant response rating (0 no effect, 100 complete control) Blackgrass ([16]; 31 g ai/ha Preemergence) | Plant response rating (0 no effect, 100 complete control) Ryegrass, Italian ([17]; 16 g ai/ha Preemergence)
40: Plant response rating (0 no effect, 100 complete control) Wheat ([6]; 62 g ai/ha Preemergence)
85: Plant response rating (0 no effect, 100 complete control) Barnyardgrass ([18]; 16 g ai/ha Preemergence)
5: Plant response rating (0 no effect, 100 complete control) Corn (corn (Zea mays); 31 g ai/ha Preemergence)
97: Plant response rating (0 no effect, 100 complete control) Barnyardgrass ([15]; 62 g ai/ha Preemergence) | Plant response rating (0 no effect, 100 complete control) Barnyardgrass ([15]; 125 g ai/ha Preemergence) | Plant response rating (0 no effect, 100 complete control) Barnyardgrass ([18]; 125 g ai/ha Preemergence)
3: Plant response rating (0 no effect, 100 complete control) Wheat ([6]; 16 g ai/ha Preemergence) | Plant response rating (0 no effect, 100 complete control) Corn (corn (Zea mays); 16 g ai/ha Preemergence)
25: Plant response rating (0 no effect, 100 complete control) Ryegrass, Italian ([17]; 31 g ai/ha Preemergence)
20: Plant response rating (0 no effect, 100 complete control) Wheat ([6]; 31 g ai/ha Preemergence)
90: Plant response rating (0 no effect, 100 complete control) Foxtail, Giant ([9]; 16 g ai/ha Preemergence)
30: Plant response rating (0 no effect, 100 complete control) Horseweed ([14]; 31 g ai/ha Preemergence)
18: Plant response rating (0 no effect, 100 complete control) Blackgrass ([16]; 125 g ai/ha Preemergence)
63: Plant response rating (0 no effect, 100 complete control) Wheat ([6]; 125 g ai/ha Preemergence) | Plant response rating (0 no effect, 100 complete control) Nightshade ([10]; 125 g ai/ha Preemergence) | Plant response rating (0 no effect, 100 complete control) Barnyardgrass ([15]; 16 g ai/ha Preemergence)
55: Plant response rating (0 no effect, 100 complete control) Johnsongrass ([4]; 125 g ai/ha Preemergence)
53: Plant response rating (0 no effect, 100 complete control) Panicum ([7]; 62 g ai/ha Preemergence)
13: Plant response rating (0 no effect, 100 complete control) Blackgrass ([16]; 62 g ai/ha Preemergence) | Plant response rating (0 no effect, 100 complete control) Corn (corn (Zea mays); 62 g ai/ha Preemergence)
48: Plant response rating (0 no effect, 100 complete control) Panicum ([7]; 125 g ai/ha Preemergence) | Plant response rating (0 no effect, 100 complete control) Corn (corn (Zea mays); 125 g ai/ha Preemergence)
100: Plant response rating (0 no effect, 100 complete control) Crabgrass, Large ([5]; 16 g ai/ha Preemergence) | Plant response rating (0 no effect, 100 complete control) Crabgrass, Large ([5]; 31 g ai/ha Preemergence) | Plant response rating (0 no effect, 100 complete control) Crabgrass, Large ([5]; 62 g ai/ha Preemergence) | Plant response rating (0 no effect, 100 complete control) Crabgrass, Large ([5]; 125 g ai/ha Preemergence)
93: Plant response rating (0 no effect, 100 complete control) Surinam Grass ([12]; 125 g ai/ha Preemergence)
15: Plant response rating (0 no effect, 100 complete control) Johnsongrass ([4]; 62 g ai/ha Preemergence) | Plant response rating (0 no effect, 100 complete control) Waterhemp ([13]; 125 g ai/ha Preemergence)
8: Plant response rating (0 no effect, 100 complete control) Johnsongrass ([4]; 31 g ai/ha Preemergence) | Plant response rating (0 no effect, 100 complete control) Soybean (soybean (Glycine max) [8]; 125 g ai/ha Preemergence)
95: Plant response rating (0 no effect, 100 complete control) Foxtail, Giant ([9]; 31 g ai/ha Preemergence) | Plant response rating (0 no effect, 100 complete control) Surinam Grass ([12]; 62 g ai/ha Preemergence) | Plant response rating (0 no effect, 100 complete control) Barnyardgrass ([18]; 31 g ai/ha Preemergence) | Plant response rating (0 no effect, 100 complete control) Barnyardgrass ([18]; 62 g ai/ha Preemergence)
45: Plant response rating (0 no effect, 100 complete control) Horseweed ([14]; 62 g ai/ha Preemergence)
